The source of these data is patent publication US9265748B2, “Anhydrous and hemihydrate crystalline forms of an (R)-baclofen prodrug, methods of synthesis and methods of use” (XenoPort, Inc., priority 2011, dated 2016).

Data set [1] can be described thus: Thermogravimetric analysis (TG-FTIR). The data set is classed as physicochemical. The settings on record: for temperature at which thermal decomposition began slowly: TG-FTIR, 10 K/min, increased strongly above 190° C. The protocol:
Thermogravimetric measurements were carried out with a Netzsch Thermo-Microbalance TG 209 coupled to a Bruker FTIR Spectrometer Vector 22. The sample was contained in sample pans with a pinhole, under a N2 atmosphere. The heating rate was set at 10 K/min. […]

A short description of data set [2]: Dynamic vapor sorption (hygroscopicity, water content). The settings on record: for water content at 50% relative humidity / water content at 95% relative humidity: dynamic vapor sorption. The data set is classed as physicochemical. The text has this:
In certain embodiments, crystalline (3R)-4-{[(1S)-2-methyl-1-(2-methylpropanoyloxyl)propoxy]carbonylamino}-3-(4-chlorophenyl)butanoic acid hemihydrate is hygroscopic. […] In certain embodiments, crystalline (3R)-4-{[(1S)-2-methyl-1-(2-methylpropanoyloxyl)propoxy]carbonylamino}-3-(4-chlorophenyl)butanoic acid hemihydrate comprises from about 2 wt %-about 3 wt % water. In certain embodiments, crystalline (3R)-4-{[(1S)-2-methyl-1-(2-methylpropanoyloxyl)propoxy]carbonylamino}-3-(4-chlorophenyl)butanoic acid hemihydrate contains about 2.15 wt % water at 50% relative humidity as measured by dynamic vapor sorption. In certain embodiments, crystalline (3R)-4-{[(1S)-2-methyl-1-(2-methylpropanoyloxyl)propoxy]carbonylamino}-3-(4-chlorophenyl)butanoic acid hemihydrate contains about 3 wt % water at 95% relative humidity as measured by dynamic vapor sorption.
In certain embodiments, crystalline (3R)-4-{[(1S)-2-methyl-1-(2-methylpropanoyloxyl)propoxy]carbonylamino}-3-(4-chlorophenyl)butanoic acid anhydrate contains less than about 0.05 wt % water at 50% relative humidity as measured by dynamic vapor sorption. In certain embodiments, crystalline (3R)-4-{[(1S)-2-methyl-1-(2-methylpropanoyloxyl)propoxy]carbonylamino}-3-(4-chlorophenyl)butanoic acid anhydrate contains less than about 0.1 wt % water at 95% relative humidity as measured by dynamic vapor sorption.

Data set [3] relates to TLESRs. The settings on record: humans; cited from earlier work.
For data set [4], the system named is substance addiction. The settings on record: clinical trials: cocaine addiction, methamphetamine dependence, opioid dependence, alcohol craving and intake, nicotine use, drug addiction generally; cited from earlier work.
The test system of data set [5] is musculoskeletal pain. The conditions noted are these: in vivo; cited from earlier work.
Data set [6] deals with allodynia and hyperalgesia. The conditions noted are these: doses lower than those required to produce sedation and impairment of motor activity; cited from earlier work.
Data set [7] relates to retching and vomiting induced by morphine. The conditions noted are these: Suzuki et al.; cited from earlier work.
Data set [8] deals with neuropathic pain. The conditions noted are these: intrathecal; spinal-cord injury and multiple sclerosis, painful extremity paresthesias, sympathetically maintained pain; cited from earlier work.
The subject of data set [9] is emesis induced by nicotine and motion. The conditions noted are these: animal models (Chan et al.); cited from earlier work.
Data set [10] is described as follows: Solubility in crystallization solvents. The class given is physicochemical. The text has this: As used herein, the terms solution and suspension are used interchangeably and are meant to include embodiments in which a compound is in a solvent or solvent mixture regardless of solubility. […] In general, solvent combinations in which a compound is soluble within a first temperature range, and poorly soluble within a second temperature range, can be used in the crystallization methods disclosed herein. Mixtures of a “good” solvent and an “anti-solvent” can also be used with temperature dependent solubilization, i.e., dissolving at elevated temperature and crystallizing at room temperature. Examples of suitable “good” solvents, i.e., solvents in which (3R)-4-{[(1S)-2-methyl-1-(2-methylpropanoyloxyl)propoxy]carbonylamino}-3-(4-chlorophenyl)butanoic acid is soluble, include methanol, ethanol, isopropanol, acetone, methyl isobutyl ketone, tetrahydrofuran, 2-methyl tetrahydrofuran, 1,4-dioxane, 1,2-ethandiol, 1,2-propanediol, 2-methoxyethanol, 2-ethoxyethanol, and a mixture of any of the foregoing.

For data set [11] the following is noted: dosed either orally or directly into the colon of a mammal; cited from earlier work.
The subject of data set [12] is reflux episodes. The conditions noted are these: clinical trials (Castell et al.); cited from earlier work.

As for `CC(C)C(=O)O[C@@H](OC(=O)NC[C@H](CC(=O)O)c1ccc(Cl)cc1)C(C)C` [(3R)-4-{[(1S)-2-methyl-1-(2-methylpropanoyloxyl)propoxy]carbonylamino}-3-(4-chlorophenyl)butanoic acid anhydrate], in [1], the “temperature at which thermal decomposition began slowly” value was “about 170 °C”. Further, the “weight loss up to 180° C.” value in [1] (scan rate 10 K/min, N2 atmosphere) is “very little weight loss”. For the same compound, in data set [2], the hygroscopicity entry was “not hygroscopic”, the “water content at 50% relative humidity” value is “less than 0.05 wt %” and the “water content at 95% relative humidity” value was “less than 0.1 wt %”.
Regarding “(3R)-4-{[(1S)-2-methyl-1-(2-methylpropanoyloxyl)propoxy]carbonylamino}-3-(4-chlorophenyl)butanoic acid hemihydrate”, the “temperature at which thermal decomposition began slowly” value in [1] is “about 170 °C”. The “weight loss up to 170° C.” value in data set [1] (scan rate 10 K/min, N2 atmosphere, loss predominantly between 80° C. and 130° C., attributable to water) is “about 2.1%”. In data set [2], the hygroscopicity result is “hygroscopic”, the “water content at 50% relative humidity” value was “about 2.15 wt %” and the “water content at 95% relative humidity” value is recorded as “about 3 wt %”. Moreover, the “hygroscopicity above about 60% relative humidity” value in data set [2] (above about 60% relative humidity) is given as “slightly hygroscopic”.
As to `NC[C@H](CC(=O)O)c1ccc(Cl)cc1` [(R)-baclofen, (R)-4-amino-3-(4-chlorophenyl)butanoic acid], the “effect on TLESRs” value in [3] is reported as “reduce TLESRs”. Also, the “efficacy in treating addiction” value in [4] was “effective”.
Turning to `NCC(CC(=O)O)c1ccc(Cl)cc1` (racemic) [baclofen, (±)-4-amino-3-(4-chlorophenyl)butanoic acid], the “efficacy in treating migraine, tension-type headaches, low-back pain and radiculopathy” value in data set [5] is recorded as “effective”. The “effect on allodynia and hyperalgesia” value in data set [6] was “inhibits allodynia and hyperalgesia”. For the same compound, the “effect on retching and vomiting induced by morphine” value in [7] was “suppress the retching and vomiting”. Besides, in data set [8], the “efficacy in treating neuropathic pain” value is reported as “effective”. The “effect on emesis induced by nicotine and motion” value in [9] was “antagonize emesis”.
For the compound `CC(C)C(=O)O[C@@H](OC(=O)NC[C@H](CC(=O)O)c1ccc(Cl)cc1)C(C)C` [Compound 1, (3R)-4-{[(1S)-2-methyl-1-(2-methylpropanoyloxyl)propoxy]carbonylamino}-3-(4-chlorophenyl)butanoic acid], in [10] (methanol, ethanol, isopropanol, acetone, methyl isobutyl ketone, tetrahydrofuran, 2-methyl tetrahydrofuran, 1,4-dioxane, 1,2-ethandiol, 1,2-propanediol, 2-methoxyethanol, 2-ethoxyethanol), the “solubility in "good" solvents” value is “soluble”. The “solubility in "anti-solvents"” value in [10] (water, diethyl ether, diisopropyl ether, methyl t-butyl ether, toluene, chlorobenzene, alkanes, cyclohexane, methylcyclohexane) is “poor solubility”. Further, the “bioavailability as R-baclofen” value in [11] is on record as “high bioavailability”. In addition, in data set [12], the “effect on reflux episodes” value was “reduce reflux episodes”.
